Test results published in patent publication US12662478B2, “ATF6 modulators and uses thereof” (Altos Labs, Inc., priority 2019, dated 2026).
Read-outs that look alike come from different tables or passages of the source.

Assays:
ATF6 [1] = molecular target: T1, ATF6 (Homo sapiens, UniProt P18850); test: ERSE ATF6-luciferase assay in absence of ER stress (U2-OS ATF6 TRE-luciferase reporter cells); assay type: cell-based; details: normalized to maximal activation with Tg; for activation at 1 µM / activation at 10 µM: U2OS, 8 h; for activation at 10 µM / ATF6 activity @ 10 μM - No Tg [%]: 10 μM test compound; for ATF6 activity @ 1 μM-No Tg [%] / ATF6 activity @ 10 μM - No Tg [%]: Table 3-3
T1 construct: endogenous in cells; host or cells: U2-OS (ATCC HTB-96) stably transduced with the Cignal Lenti ATF6 luc reporter (Qiagen #CLS-6031L)
T1 sequence (P18850 1-670): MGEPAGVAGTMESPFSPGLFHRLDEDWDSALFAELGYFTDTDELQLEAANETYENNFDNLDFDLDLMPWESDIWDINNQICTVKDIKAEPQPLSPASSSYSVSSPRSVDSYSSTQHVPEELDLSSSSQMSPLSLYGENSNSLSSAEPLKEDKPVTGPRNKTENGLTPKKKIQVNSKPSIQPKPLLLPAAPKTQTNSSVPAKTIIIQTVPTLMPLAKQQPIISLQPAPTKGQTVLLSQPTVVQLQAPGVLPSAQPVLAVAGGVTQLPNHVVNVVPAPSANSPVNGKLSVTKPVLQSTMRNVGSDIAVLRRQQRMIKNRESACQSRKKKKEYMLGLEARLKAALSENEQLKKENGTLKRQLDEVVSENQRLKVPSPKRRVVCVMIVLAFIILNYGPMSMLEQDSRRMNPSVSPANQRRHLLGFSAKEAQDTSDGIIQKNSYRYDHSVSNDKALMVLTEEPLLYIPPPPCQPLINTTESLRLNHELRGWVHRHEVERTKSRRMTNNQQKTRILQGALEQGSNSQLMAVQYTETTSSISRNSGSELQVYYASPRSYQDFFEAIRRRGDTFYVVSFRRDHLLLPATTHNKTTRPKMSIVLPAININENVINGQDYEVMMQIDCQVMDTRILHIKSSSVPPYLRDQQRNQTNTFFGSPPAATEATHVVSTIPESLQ
Description: (§1) To understand how exemplary compounds of the invention modulate the activity of ATF6 in absence or presence of endoplasmic reticulum (ER) stress, a Human bone osteosarcoma (U2-OS)-based TRE-luciferase reporter stable cell line was generated to determine the modulation of transcription of ATF6 target genes.
(§2) U2-OS cells were obtained from the American Type Culture Collection (ATCC HTB-96, ATCC Manassas, VA) and were cultured with growing medium containing Dulbecco's Modified Eagle's Medium (DMEM) (Cat. No.: SH30023.02, HyClone) supplemented with fetal bovine serum (FBS) 10% (Cat. No.: 16000044, Gibco) and 1% penicillin-streptomycin antibiotic cocktail (Cat. No.: SV30010, Hyclone).
(§3) Cignal Lenti ATF6 luc reporter (Qiagen #CLS-6031L) was used to produce a stable cell line in U2-OS cells (U2-OS ATF6 TRE-luciferase reporter). The lenti ATF6 reporter is a preparation of replication incompetent, VSV-g pseudotyped lentivirus particles expressing the firefly luciferase gene under the control of a minimal (m)CMV promoter and tandem repeats of the ATF6 transcriptional response element (TRE). The number of response elements as well as the intervening sequence between response elements has been experimentally optimized to maximize the signal to noise ratio.
(§4) Exemplary compounds of the invention and reference compounds were prepared from powder as 10 mM stock solutions in dimethyl sulfoxide (DMSO; Cat. No. #D2650, Sigma Aldrich) and stored at −80° C. in presence of N2 neutral atmosphere.
(§5) For the primary screening, 40,000 U2-OS ATF6 TRE-luciferase reporter cells were plated in poly-D-lysine (Cat. No.: P2636, Sigma) pre-coated white 96-well plates (Thermo Scientific Nunc #136101) with 100 μL of growing medium. Cells were incubated in humidified chambers for 24 hr.
For testing exemplary compounds in absence of ER-stress, cells were treated for 8 hr with 100 μL growing medium containing either vehicle (DMSO), 1 or 10 μM test compound or 0.1 μM Tg. The final concentration of DMSO in each well was kept at 0.3%. Plates were incubated in humidified chambers.
After 8 hr of incubation, plates were cooled down to room temperature for 10 min prior to luciferase assays. Luciferase reactions were performed as above. Luminescence was read by integration of 1 s with a gain of 110 in a Synergy 4 Microplate reader. All measurements were carried out in triplicate.
The average activity determined from the wells containing vehicle only (DMSO, 0% of ATF6 activity) was used as blank and subtracted from the rest of measurements. The percentage of modulation of exemplary compound was calculated by normalizing values to potential maximal activation with Tg.
ATF6 activities of exemplary compounds at 1 and 10 μM in absence of Tg-induced ER stress in the U2-OS ATF6 TRE-luciferase reporter cells were determined and are shown in Table 3-2, and Table 3-3.

ATF6 [2] = molecular target: T1, ATF6; test: ERSE ATF6-luciferase assay in presence of Tg-induced ER stress (U2-OS ATF6 TRE-luciferase reporter cells); assay type: cell-based; details: in presence of ER stress (thapsigargin), Tg only = 100%; for ATF6 activity @ 1 μM [%] / activity at 1 µM: 1 μM test compound; for ATF6 activity @ 1 μM [%] / ATF6 activity @ 10 μM [%]: 8 hr; for activity at 10 µM / activity at 1 µM: U2OS, 8 h; for activity at 10 µM / ATF6 activity @ 10 μM [%]: 10 μM test compound
Description: as §1, §2, §3, §4, §5
For testing exemplary compounds in presence of ER-stress, cells were pre-treated for 30 min with 50 μL growing medium containing either vehicle (DMSO), 1 or 10 μM test compound. After this pre-incubation, 50 μL of a solution containing 0.2 μM of the ER stress-inducer thapsigargin (Tg) was added to the appropriate wells. The Tg solution also contains vehicle or test compounds at 1 or 10 μM as indicated. The final concentration of DMSO in each well was kept at 0.3%. Plates were incubated for 8 hr in humidified chambers.
After the 8 hr incubation, plates were cooled down to room temperature for 10 min prior to the luciferase assays. Luciferase reactions were performed using Luciferase Assay System (Cat. No.: E4550, Promega). Briefly, each well was washed with 100 μl of PBS 1× and, then, 20 μl of lysis reagent was added into each well. Plates were shaken for 10 min and, then, 50 μl of Luciferase Assay Reagent was added to each well. Luminescence was determined by integration of 1 s with a gain of 110 in a Synergy 4 Microplate reader. All measurements were carried out in triplicate.
The average activity determined from the wells containing vehicle only (DMSO, 0% of ATF6 activity) was used as blank and subtracted from the rest of measurements. The average activity determined from the wells containing Tg only was used as 100% of ATF6 activity. The percentage of modulation of exemplary compounds was calculated by normalizing values to potential maximal activation with Tg.
ATF6 activities of exemplary compounds at 1 and 10 μM in presence Tg-induced ER stress tested in the U2-OS ATF6 TRE-luciferase reporter cells were determined and are shown in Table 2-2 and Table 3-2.

[3] = 1 μM test compound, in absence of ER stress (no Tg), Table 3-3, read-out: ATF6 activity @ 1 μM-No Tg [%]
[4] = in absence of ER stress (no Tg), Table 3-3, read-out: ATF6 activity @ 10 μM - No Tg [%]
[5] = 1 μM test compound, in absence of ER stress (no Tg), 8 hr
[6] = in absence of ER stress (no Tg), 8 hr

SMILES | activation at 1 µM (ATF6 [1]; [3]) | activity at 10 µM (ATF6 [2]; Table 2-3) | ATF6 activity @ 1 μM [%] (ATF6 [2]; Table 2-3) | ATF6 activity @ 1 μM-No Tg [%] (ATF6 [1]; [5]) | ATF6 activity @ 10 μM - No Tg [%] (ATF6 [1]; [6]) | ATF6 activity @ 10 μM [%] (ATF6 [2]; Table 2-3) | other results
CC(C1CCCC1)n1cc(NC(=O)c2cc(-c3ccco3)on2)cn1 (single isomer, unassigned) [Compound 3-18, N-(1-(1-cyclopentylethyl)-1H-pyrazol-4-yl)-5-(furan-2-yl)isoxazole-3-carboxamide] | – | – | + (+ refers to 100% < % activity < 125% at 1 or 10 μM) | + (+ refers to 0% < % activity < 25% at 1 or 10 μM test compound) | + (+ refers to 0% < % activity < 25% at 1 or 10 μM test compound) | ++ (++ refers to 125% < % activity < 150% at 1 or 10 μM test compound) | –
O=C(Nc1cnn(C2CCOC2)c1)c1cc(-c2ccccn2)on1 (single isomer, unassigned) [Compound 3-21, 5-(pyridin-2-yl)-N-(1-(tetrahydrofuran-3-yl)-1H-pyrazol-4-yl)isoxazole-3-carboxamide] | – | – | +++ (+++ refers to >150% at 1 or 10 μM test compound) | + (+ refers to 0% < % activity < 25% at 1 or 10 μM test compound) | ++ (++ refers to 25% < % activity < 50% at 1 or 10 μM test compound) | +++ (+++ refers to >150% at 1 or 10 μM test compound) | –
O=C(Nc1cnn(C2CCOC2)c1)c1cc(-c2cccs2)on1 (single isomer, unassigned) [Compound 3-23, N-(1-(tetrahydrofuran-3-yl)-1H-pyrazol-4-yl)-5-(thiophen-2-yl)isoxazole-3-carboxamide] | – | – | +++ (+++ refers to >150% at 1 or 10 μM test compound) | ++ (++ refers to 25% < % activity < 50% at 1 or 10 μM test compound) | +++ (+++ refers to % activity >50 % at 1 or 10 μM test compound) | +++ (+++ refers to >150% at 1 or 10 μM test compound) | –
O=C(Nc1cnn(Cc2ccc(C(F)(F)F)cc2)c1)c1cc(-c2ccco2)on1 [Ceapin-A8, reference compound] | – | – | + (+ refers to 100% < % activity < 125% at 1 or 10 μM) | – | – | − (− refers to 75% < % activity < 100% at 1 or 10 μM) | ATF6 activity @ 1 μM [%] (ATF6 [1]; 1 μM test compound, in absence of ER stress, 8 hr, Table 3-2): + (+ refers to 0% < % activity < 25% at 1 or 10 μM test compound); ATF6 activity @ 1 μM [%] (ATF6 [2]; Table 2-2): + (+ refers to 100% < % activity < 125% at 1 or 10 μM); ATF6 activity @ 10 μM [%] (ATF6 [2]; Table 2-2): − (− refers to 75% < % activity < 100% at 1 or 10 μM)
CC(c1c(Cl)cccc1Cl)n1cc(C#Cc2nnc(-c3ccccn3)s2)cn1 (stereo not shown) [Compound 2-20, 2-((1-(1-(2,6-dichlorophenyl)ethyl)-1H-pyrazol-4-yl)ethynyl)-5-(pyridin-2-yl)-1,3,4-thiadiazole] | – | – | – | – | – | – | activation at 1 µM (ATF6 [1]; 1 μM test compound, in absence of ER stress, Table 3-2, read-out: ATF6 activity @ 1 μM [%]): 0 to 25%; activation at 10 µM (ATF6 [1]; in absence of ER stress, Table 3-2, read-out: ATF6 activity @ 10 μM [%]): 0 to 25%; activity at 1 µM (ATF6 [2]; Table 2-2): 75 to 100%; activity at 10 µM (ATF6 [2]; Table 2-2): 100 to 125%

The next lines start with results.

activation at 1 µM (ATF6 [1]; [3]) | activity at 10 µM (ATF6 [2]; Table 2-3) | SMILES | ATF6 activity @ 1 μM [%] (ATF6 [2]; Table 2-3) | ATF6 activity @ 1 μM-No Tg [%] (ATF6 [1]; [5]) | ATF6 activity @ 10 μM - No Tg [%] (ATF6 [1]; [6]) | ATF6 activity @ 10 μM [%] (ATF6 [2]; Table 2-3) | other results
0 to 25% | 125 to 150% | CC(C1CCCC1)n1cc(NC(=O)c2cc(-c3ccco3)on2)cn1 (single isomer, unassigned) [Compound 3-17, N-(1-(1-cyclopentylethyl)-1H-pyrazol-4-yl)-5-(furan-2-yl)isoxazole-3-carboxamide] | ++ (++ refers to 125% < % activity < 150% at 1 or 10 μM test compound) | – | – | – | activation at 10 µM (ATF6 [1]; [4]): 0 to 25%
0 to 25% | > 150% | O=C(Nc1cnn(C2CCOC2)c1)c1cc(-c2ccccn2)on1 (single isomer, unassigned) [Compound 3-20, 5-(pyridin-2-yl)-N-(1-(tetrahydrofuran-3-yl)-1H-pyrazol-4-yl)isoxazole-3-carboxamide] | + (+ refers to 100% < % activity < 125% at 1 or 10 μM) | – | + (+ refers to 0% < % activity < 25% at 1 or 10 μM test compound) | – | –
– | > 150% | O=C(Nc1cnn(C2CCOC2)c1)c1cc(-c2cccs2)on1 (single isomer, unassigned) [Compound 3-22, N-(1-(tetrahydrofuran-3-yl)-1H-pyrazol-4-yl)-5-(thiophen-2-yl)isoxazole-3-carboxamide] | ++ (++ refers to 125% < % activity < 150% at 1 or 10 μM test compound) | + (+ refers to 0% < % activity < 25% at 1 or 10 μM test compound) | ++ (++ refers to 25% < % activity < 50% at 1 or 10 μM test compound) | – | –
0 to 25% | > 150% | O=C(Nc1cnn(C2CCCC2)c1)c1cc(-c2ccco2)on1 [Compound 3-1, N-(1-cyclopentyl-1H-pyrazol-4-yl)-5-(furan-2-yl)isoxazole-3-carboxamide] | – | – | – | – | activation at 10 µM (ATF6 [1]; [4]): 0 to 25%; activity at 1 µM (ATF6 [2]; Table 2-3): > 150%
